Like-named read-outs stand apart in the source and are kept apart here.
Columns and labels:
[1] = test system: Human parainfluenza virus type 3 (HPIV-3); test: Antiviral activity assay (0.1–1000 µM), IC50; type: cell-based; conditions: Table S4, range 0.1-1000 µM, HPIV-3; read-out: IC50 (M) HPIV-3
Summary of the method: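 Confluent cell monolayers were infected (AdV5 and EMCV MOI 0.005, HPIV-3 MOI 0.01, 1-h adsorption; HCMV 20 PFU/well, 2-h adsorption), then incubated at 37 °C with compounds (0.1–1000 µM) in 2% FBS MEM until CPE appeared. Infection was read by MTT or, for HCMV, plaque counting. IC50 was the concentration halving plaques versus untreated infected controls.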

[2] = Cytotoxicity MTT assay (0.1–1000 µM), CC50; type: cell-based, Macaca mulatta; conditions: Macaca mulatta, LLC-MK2 cells, LLC-MK2, MTT, 48 h; read-out: CC50 Normal Cell Lines LLC-MK2
LLC-MK2 cells [3] = test: Cytotoxicity MTT assay (0.1–1000 µM), CC50; type: cell-based, Macaca mulatta
[4] = Cytotoxicity screening at 10 µM (MTT); type: cell-based, Human; conditions: human, HeLa cells, read-out: Cell line (viability %) HeLa
[5] = Cytotoxicity screening at 10 µM (MTT); type: cell-based, Mus musculus; conditions: Mus musculus, NCTC clone 929 cells, read-out: Cell line (viability %) NCTC clone 929
LLC-MK2 cells [6] = test: Cytotoxicity screening at 10 µM (MTT); type: cell-based, Macaca mulatta; conditions: 48 h
[7] = Cytotoxicity screening at 10 µM (MTT); type: cell-based, Cercopithecus aethiops; conditions: Cercopithecus aethiops, Vero cells, read-out: Cell line (viability %) Vero
[8] = Cytotoxicity screening at 10 µM (MTT); type: cell-based, Human; conditions: human, MRC-5 cells, read-out: Cell line (viability %) MRC-5
[9] = test system: Human parainfluenza virus type 3 (HPIV-3); test: Antiviral screening at 10 µM; type: cell-based; conditions: HPIV-3-infected cells
Experimental: (§1) Antiviral properties of compounds 1a, 1c, 1a[PF6], 1c[PF6], 9b[PF6], 9c[PF6], 10a–10d, 2a, and 2b were assessed against five viruses: Human herpesvirus 1 (HSV-1, VR-539), Human parainfluenza virus type 3 (HPIV-3, VR-93), Human adenovirus 5 (AdV5, VR-5), Human herpesvirus 5 (HCMV, VR-977), and Encephalomyocarditis virus (EMCV, VR-1479). Viruses were purchased from the American Type Culture Collection (ATCC, Manassas, VA, USA).
(§2) All tested compounds were dissolved in DMSO (dimethyl sulfoxide, Sigma-Aldrich, Darmstadt, Germany) and then suspended in Minimum Essential Medium (MEM; Sigma-Aldrich, Darmstadt, Germany) supplemented with 2% heat-inactivated fetal bovine serum (FBS; Sigma-Aldrich, Darmstadt, Germany), 2 mM L-glutamine (Sigma-Aldrich, Darmstadt, Germany), and 100 units/mL penicillin G with […] streptomycin (Sigma-Aldrich, Darmstadt, Germany).
(§3) Vero, LLC-MK2, NCTC clone 929, MRC-5, and HeLa cells were propagated in Minimum Essential Medium (MEM; Sigma-Aldrich, Darmstadt, Germany) supplemented with 10% heat-inactivated fetal bovine serum (FBS; Sigma-Aldrich, Darmstadt, Germany) and 100 units/mL penicillin G with […] streptomycin (Sigma-Aldrich, Darmstadt, Germany). Upon reaching 80–90% confluency, cells were harvested with 0.25% trypsin in 1 mM EDTA (Life Technologies, Warsaw, Poland) and seeded onto 96-well microplates at 2 × 10^5 cells/mL. After overnight incubation of cells at 37 °C in a humidified atmosphere containing 5% CO2, the culture medium was removed, and cells were inoculated with the respective virus solution in MEM supplemented with 2% FBS and antibiotics (HSV-1 MOI 0.005, 1000 virions/mL; HPIV-3 MOI 0.01, 2000 virions/mL; AdV5 MOI 0.005, 1000 virions/mL, EMCV MOI 0.005, 1000 virions/mL, HCMV 20 PFU (plaque forming units) per well). After a 1-h (HSV-1, HPIV-3, AdV5, and EMCV) or 2-h adsorption period (HCMV), the residual virus was removed, and the infected cells were further incubated with a 100 μL freshly prepared solution of tested compounds diluted with a maintenance medium supplemented with 2% FBS to obtain compound concentrations of 10 µM. The final concentration of DMSO in the medium was 0.1%. All experiments were carried out in triplicate. The cells monolayers were incubated with the compounds at 37 °C in a humidified atmosphere containing 5% CO2 until the typical cytopathic effect (CPE) was visible. Viral infection was evaluated by the MTT assay or plaque reduction assay (HCMV). After incubation with drugs, the cells were treated with 3-(4,5-dimethylthiazol-2-yl)-2,5-diphenyltetrazolium bromide dye solution (MTT, Sigma-Aldrich, Darmstadt, Germany) (25 μL, 5 mg/mL) for 2 h and lysed with solvent solution (100 μL) containing: DMF (Sigma-Aldrich, Darmstadt, Germany) (45 mL), SDS (Sigma-Aldrich, Darmstadt, Germany) (13.5 g), and distilled water (55 mL). After overnight incubation at 37 °C, the optical density at 550 nm and a reference wavelength of 670 nm were measured on a microplate spectrophotometer, Varioskan Lux (Thermo Fisher Scientific, Waltham, MA, USA). The number of HCMV plaques was counted under an inverted microscope Olympus IX73 (Olympus, Tokyo, Japan).

[10] = test system: Encephalomyocarditis virus (EMCV); test: Antiviral screening at 10 µM; type: cell-based; conditions: EMCV-infected cells
Experimental: as §1, §2, §3

[11] = test system: Human adenovirus 5 (AdV5); test: Antiviral screening at 10 µM; type: cell-based; conditions: AdV5-infected cells
Experimental: as §1, §2, §3

[12] = test system: Human herpesvirus 1 (HSV-1); test: Antiviral screening at 10 µM; type: cell-based; conditions: HSV-1-infected cells
Experimental: as §1, §2, §3

HeLa cells [13] = test: Cytotoxicity screening at 10 µM (MTT); type: cell-based, Human; conditions: 48 h
NCTC clone 929 cells [14] = test: Cytotoxicity screening at 10 µM (MTT); type: cell-based, Mus musculus; conditions: 48 h
Vero cells [15] = test: Cytotoxicity screening at 10 µM (MTT); type: cell-based, Cercopithecus aethiops; conditions: 48 h
MRC-5 cells [16] = test: Cytotoxicity screening at 10 µM (MTT); type: cell-based, Human; conditions: 48 h
NCTC clone 929 cells [17] = test: Cytotoxicity MTT assay (0.1–1000 µM), CC50; type: cell-based, Mus musculus; conditions: NCTC clone 929, MTT, 48 h; read-out: CC50 Normal Cell Lines NCTC Clone 929
MRC-5 cells [18] = test: Cytotoxicity MTT assay (0.1–1000 µM), CC50; type: cell-based, Human; conditions: MRC-5, MTT, 48 h; read-out: CC50 Normal Cell Lines MRC-5
A549 cells = test: Cytotoxicity MTT assay (0.1–1000 µM), CC50; type: cell-based, Human; conditions: 48 h, read-out: CC50 Cancer Cell Lines A549
HepG2 cells = test: Cytotoxicity MTT assay (0.1–1000 µM), CC50; type: cell-based, Human; conditions: 48 h, read-out: CC50 Cancer Cell Lines HepG2
Vero cells [19] = test: Cytotoxicity MTT assay (0.1–1000 µM), CC50; type: cell-based, Cercopithecus aethiops; conditions: 48 h, read-out: CC50 Normal Cell Lines Vero
HeLa cells [20] = test: Cytotoxicity MTT assay (0.1–1000 µM), CC50; type: cell-based, Human; conditions: MTT, 48 h, read-out: CC50 Cancer Cell Lines HeLa
[21] = Table S2, range 0.1-1000 µM, LLC-MK2, read-out: Cell line (CC50 M) LLC-MK2
[22] = LLC-MK2, MTT, 48 h, read-out: CC50 Normal Cell Lines LLC-MK2

COc1cccc(Cn2c[n+](Cc3ccccc3)c(C)c2C)c1 [Compound 1c, lepidiline C, reference compound]
IC50 [1]: > 2.83e-05 M | CC50 at 48 h [2]: < 80 µM | CC50 (LLC-MK2 cells [3]; [21]): 28.3 ± 5.86 µM | viability at 48 h, 10 µM [4]: 8.9% | viability at 48 h, 10 µM [5]: 8.8% | Cell line (viability %) LLC-MK2 (LLC-MK2 cells [6]): 78.4% | viability at 48 h, 10 µM [7]: 90.7% | viability at 48 h, 10 µM [8]: 76.7% | viability at 10 µM ([9]; Human respirovirus 3, antiviral screening, read-out: Cell line (viability %) HPIV-3): 90.4% | viability at 10 µM ([10]; Cardiovirus A, read-out: Cell line (viability %) EMCV): 7.7% | viability at 10 µM ([11]; Human mastadenovirus C, read-out: Cell line (viability %) AdV5): 17.9% | viability at 10 µM ([12]; Human alphaherpesvirus 1, antiviral screening, read-out: Cell line (viability %) HSV-1): 18.6%

Cc1c(C)[n+](Cc2ccccc2)cn1Cc1ccccc1 [1a[PF6]]
IC50 [1]: > 3.27e-05 M | CC50 (LLC-MK2 cells [3]; [22]): < 80 µM | CC50 (LLC-MK2 cells [3]; [21]): 32.7 ± 6.81 µM | Cell line (viability %) HeLa (HeLa cells [13]): 23.4% | Cell line (viability %) NCTC clone 929 (NCTC clone 929 cells [14]): 56.2% | Cell line (viability %) LLC-MK2 (LLC-MK2 cells [6]): 90.3% | Cell line (viability %) Vero (Vero cells [15]): 89.0% | Cell line (viability %) MRC-5 (MRC-5 cells [16]): 78.6% | Cell line (viability %) HPIV-3 ([9]; antiviral screening): 62.4% | Cell line (viability %) EMCV [10]: 7.8% | Cell line (viability %) AdV5 [11]: 15.3% | Cell line (viability %) HSV-1 ([12]; antiviral screening): 17.5%

Cc1c(C)[n+](Cc2cccc(F)c2)cn1Cc1ccccc1 [1e[PF6]] [1-Benzyl-3-(3-fluorobenzyl)-4,5-dimethylimidazolium hexafluorophosphate]
CC50 (NCTC clone 929 cells [17]): 148 ± 11.5 µM | CC50 (MRC-5 cells [18]): 150 ± 4.17 µM | CC50 (A549 cells): 38 ± 3.46 µM | CC50 (LLC-MK2 cells [3]; [22]): 150 ± 2.52 µM | CC50 (HepG2 cells): 317 ± 5.77 µM | CC50 (Vero cells [19]): 56.3 ± 3.21 µM | CC50 (HeLa cells [20]): 0.08 ± 0.001 µM

— article PMC9181938, “Fluorinated Analogues of Lepidilines A and C: Synthesis and Screening of Their Anticancer and Antiviral Activity” (Molecules, 2022)
